According to paper PMC6562844, “A Basic Study of Photodynamic Therapy with Glucose-Conjugated Chlorin e6 Using Mammary Carcinoma Xenografts” (Cancers, 2019):
Read-outs that look alike come from different tables or passages of the source.

Key:
SNP cells [1] = test: Analysis of cell death (Hoechst 33342, Annexin V-FITC / EthD-III staining); type: cell-based, canine; conditions: for Annexin V-FITC / EthD-III staining 4 h after PDT: 8 μg/mL
Procedure: We seeded 5 × 10^4 SNP cells in 35-mm Petri dishes containing 2 mL of cultivation medium. After 24 h of incubation, the dishes were divided into the following […] groups: 1) control group (no treatment); 2) 0 J/cm^2 PDT group (treated with 8 μg/mL G-Ce6 and irradiated with light dose of 0 J/cm^2); 3) 1 J/cm^2 PDT group (treated with 8 μg/mL G-Ce6 and irradiated with light dose of 1 J/cm^2); 4) 5 J/cm^2 PDT group (treated with 8 μg/mL G-Ce6 and irradiated with light dose of 5 J/cm^2); and 5) 15 J/cm^2 PDT group (treated with 8 μg/mL G-Ce6 and irradiated with light dose of 15 J/cm^2).
The cells were incubated with 8 μg/mL G-Ce6 for 24 h. After washing with fresh media, the cells were irradiated with 650-nm laser light (10 mW/cm^2; 1, 5, and 15 J/cm^2) emitted by a semiconductor laser using an optical fiber with a microlens delivery attachment. After 4 h of PDT, the cells were stained using the Promokine Apoptotic/Necrotic/Healthy cell detection kit (PromoKine, Heidelberg, Germany), according to the manufacturer’s instructions. […] Nuclear morphology was examined using an Olympus BX51 (Olympus Co., Tokyo, Japan). […] Nuclear morphology was examined using an Olympus Fluoview FV1000 (Olympus Co., Tokyo, Japan). The cells were analyzed using fluorescence microscopy using FITC and Texas Red filter setting.

SNP cells [2] = test: Analysis of apoptosis (Muse Annexin V and Dead Cell Assay kit); type: cell-based, canine; conditions: 8 μg/mL; 1, 5, or 15 J/cm^2; 4 h after PDT; p < 0.01
Procedure: SNP cells were seeded at a density of 5 × 10^4 cells/well in 35-mm petri dishes containing 2 mL culture medium. Following 24 h of incubation, the cells were divided into the following groups: control (no treatment); laser (irradiated with a light dose of 15 J/cm^2); G-Ce6 (treated with 8 μg/mL G-Ce6); and PDT (treated with 8 μg/mL G-Ce6, and then irradiated with a light dose of 1, 5, or 15 J/cm^2).
The cells were incubated with 8 μg/mL G-Ce6 for 24 h. After washing with fresh media, the cells were irradiated with 650-nm laser light (10 mW/cm^2; 1, 5, and 15 J/cm^2) emitted by a semiconductor laser, using an optical fiber with a microlens delivery attachment. Apoptosis was assessed 4 h after laser irradiation using the Muse Annexin V and Dead Cell Assay kit (EMD Millipore Co., Billerica, MA, USA), according to the manufacturer’s protocols. Annexin V was used to detect phosphatidylserine on the external membrane of apoptotic cells.
Single-cell suspensions were then loaded onto the Muse Cell Analyzer (EMD Millipore Co.).

SNP cells [3] = test: Effect of a pan-caspase inhibitor on G-Ce6-PDT-induced cell death; type: cell-based, canine; conditions: 8 μg/mL G-Ce6; 10 μM Z-VAD-FMK; 5 J/cm^2
Procedure: SNP cells were incubated with 8 μg/mL G-Ce6 for 24 h in the presence (10 μM) or absence of Z-VAD-FMK (Medical & Biological Laboratories Co. Ltd., Aichi, Japan), which is a pan-caspase inhibitor. After washing with fresh media, the cells were irradiated with 650-nm laser light (10 mW/cm^2, 5 J/cm^2) emitted by a semiconductor laser, using an optical fiber with a microlens delivery attachment. Apoptosis was assessed at 4 h after laser irradiation using the Muse Annexin V and Dead Cell Assay kit.

[4] = Pharmacokinetics after intravenous administration in healthy dogs; type: in vivo; conditions: beagle, dog, plasma, i.v.; for Vd: read-out: Vdss
Procedure: The animal protocol using healthy beagle dogs was approved by the Animal Research Committee of the Tottori University (project number: 17-T-3). For the pharmacokinetic crossover study, 6, 3, and 1 healthy beagle dogs were intravenously administered G-Ce6 at a dose of 2, 5, and 20 mg/kg, respectively. The ages of the healthy dogs (3 males and 3 females) ranged from 6–12 years old (mean and median, 8.6 and 7.5 years, respectively); the dogs weighed 8.7–11.2 kg (mean and median, 10.2 and 10.5 kg, respectively).
The volume of G-Ce6 required to achieve the desired doses was diluted with 0.5% saline to obtain a total injection volume of 10 mL. The full injection volume was intravenously administered over 10 min at a rate of 60 mL/h using an appropriate syringe pump.
Blood samples were collected at 0, 10, and 30 min, and 1, 3, 6, and 24 h after the end of G-Ce6 injection. The samples were mixed with heparin in plastic tubes and centrifuged at 600 × g for 5 min at 4 °C; 0.2 mL of plasma from each centrifuged sample was transferred to Eppendorf tubes. The collected plasma samples were kept in the dark to avoid light exposure until assay initiation. For fluorescence measurement, plasma was read on a Fluorescence Spectrometer SH-9000Lab (excitation, 405 nm and emission, 665 nm; Hitachi High-Technologies Co., Tokyo, Japan). The concentration of G-Ce6 was determined by comparison with appropriate standards. The concentrations of G-Ce6 in the plasma were fitted to a two-compartment model and analyzed with a pharmacokinetic analysis program (http://www.pharm.kyoto-u.ac.jp/byoyaku/Kinetics/download.html). The pharmacokinetic parameters were calculated as follows: half-life (T1/2) = ln 2/β, where β is the slope of the elimination phase; volume of distribution at steady state (Vdss) = dose (A/α^2 + B/β^2)/((A/α) + (B/β))^2, where A and B are the intercepts of the distribution and elimination phases, respectively; α is the slope of the distribution phase; and clearance (CL) = dose/AUC, where AUC is the area under the curve, which was calculated using the trapezoidal method.

[5] = tested on: murine colon cancer cells; parameters: method as in PMID 29408755; conditions: light dose of 16 J/cm^2; read-out: IC50 against murine colon cancer cells; cited from earlier work
SNP cells [6] = test: Photodynamic cytotoxicity in SNP cells (Cell Counting Kit-8); type: cell-based, canine; conditions: 650-nm laser, 1 J/cm^2, data not shown

CCC1=C(C)c2cc3[nH]c(cc4nc(c(CC(=O)OC)c5[nH]c(cc1n2)c(C)c5C(=O)OC)[C@@H](CCC(=O)OC)[C@@H]4C)c(C)c3C(C)OCCCS[C@@H]1O[C@H](CO)[C@@H](O)[C@H](O)[C@H]1O (stereo partly drawn) [G-Ce6, Methyl (7S,8S)-18-ethyl-5-(2-methoxy-2-oxoethyl)-7-(3-methoxy-3-oxopropyl)-2,8,12,17-tetramethyl-13-(1-(3-(((2S,3R,4S,5S,6R)-3,4,5-trihydroxy-6-(hydroxymethyl)tetrahydro-2H-pyran-2-yl)thio)propoxy)ethyl)-7H,8H-porphyrin-3-carboxylate]
Morphological changes 4 h after PDT (SNP cells [1]; 0 J/cm^2 PDT group, Hoechst 33342): Signs of cell death were not visible | Annexin V-FITC / EthD-III staining 4 h after PDT (SNP cells [1]; 0 and 1 J/cm^2 PDT groups): a few cells were positively stained with EthD-III | Annexin V-FITC / EthD-III staining 4 h after PDT (SNP cells [1]; 5 and 15 J/cm^2 PDT groups): many cells were positively stained with Annexin V or EthD-III | Morphological changes 4 h after PDT (SNP cells [1]; 1 J/cm^2 PDT group): membrane blebbing | Morphological changes 4 h after PDT (SNP cells [1]; 5 J/cm^2 PDT group): shrinkage | Hoechst 33342 nuclear staining 4 h after PDT (SNP cells [1]; 5 and 15 J/cm^2 PDT groups): nuclear condensation | Morphological changes 4 h after PDT (SNP cells [1]; 15 J/cm^2 PDT group): cell membranes were not observed and a decrease in the number of SNP cells was evident | Apoptotic rates compared with control group (SNP cells [2]): significantly higher | G-Ce6-PDT-induced apoptosis and cell death in the presence of Z-VAD-FMK (SNP cells [3]): could not be blocked | AUC ([4]; 5 mg/kg (n = 3)): 59700 ± 7870 ng·h/mL | Cmax ([4]; 5 mg/kg (n = 3)): 47000 ± 12200 ng/mL | clearance ([4]; 5 mg/kg (n = 3)): 1.41 mL/min/kg | half-life ([4]; 5 mg/kg (n = 3)): 2.84 ± 0.6 h | Vd ([4]; 5 mg/kg (n = 3)): 0.258 ± 0.0656 L/kg | AUC ([4]; 20 mg/kg (n = 1)): 235000 ng·h/mL | Cmax ([4]; 20 mg/kg (n = 1)): 82000 ng/mL | clearance ([4]; 20 mg/kg (n = 1)): 1.42 mL/min/kg | half-life ([4]; 20 mg/kg (n = 1)): 2.51 h | Vd ([4]; 20 mg/kg (n = 1)): 0.284 L/kg | AUC ([4]; both sexes, 2 mg/kg (n = 6)): 12000 ± 3180 ng·h/mL | Cmax ([4]; both sexes, 2 mg/kg (n = 6)): 15200 ± 4440 ng/mL | clearance ([4]; both sexes, 2 mg/kg (n = 6)): 2.93 mL/min/kg | half-life ([4]; both sexes, 2 mg/kg (n = 6)): 3.02 ± 0.58 h | Vd ([4]; both sexes, 2 mg/kg (n = 6)): 0.529 ± 0.189 L/kg | IC50 [5]: 1.35 nM | Cytotoxicity after 1 h incubation (SNP cells [6]): No cytotoxicity was observed
